Experimental data reported in patent publication US8399682B2, “Substituted (pyrazolylcarbonyl)imidazolidinones and their use” (AiCuris GmbH & Co. KG, priority 2008, dated 2013).

What was measured:
reverse transcriptase = biological target: T1, reverse transcriptase (Human immunodeficiency virus type 1 group M subtype B, UniProt P04585); assay: Biochemical Reverse Transcriptase Assay (Reverse Transcriptase Assay, colorimetric, Roche); settings: read-out: IC50 (nM) RT Assay
T1 construct: negative control (mixture without reverse transcriptase); purchased Roche Diagnostics GmbH, Mannheim, Germany
Description: The “Reverse Transcriptase Assay, colorimetric” (Roche Diagnostics GmbH, Mannheim, Germany) is used in accordance with the manufacturer's information. The test substances are dissolved in DMSO and are used in the test diluted in 5-fold steps (final DMSO concentration 1%). The resulting values of the photometric evaluation (405/492 nm) are less than 0.1 for the negative control (mixture without reverse transcriptase) and are in the region of 1.5 for the positive control (mixture without test substance). The IC50 values of the test substances are determined as the concentration of the test substance dilution at which the measured optical density is 50% of the positive control.

HIV-1NL4-3 wt = assay: Light assay with wild-type HI reporter virus in MT4 7F2 cells; type: cell-based; settings: Human immunodeficiency virus 1, 2% FCS
Description: (§1) For the mixture for a 96-well MTP, 3 million MT4 7F2 cells are pelleted, suspended in 1 ml of RPMI 1640 medium without phenol red (Invitrogen, Karlsruhe, Germany)/10% FCS/10% AIM-V (Invitrogen, Karlsruhe, Germany) and incubated together with a suitable amount of the corresponding HIV-1NL4-3 reporter virus at 37° C. for 2 hours (pellet infection). Unadsorbed viruses are subsequently washed out with PBS, and the infected cells are pelleted again and suspended in 8 ml of RPMI 1640 medium without phenol red/2% or 10% FCS/10% AIM-V. 80 μl thereof are pipetted into each well of a white 96-well MTP with 20 μl of test substance in suitable dilution. To avoid edge effects, the wells on the edge of the MTP are not used for substance dilutions. The second vertical row of the MTP contains only infected cells (virus control) and the eleventh vertical row only uninfected cells (cell control), in each case in RPMI 1640 medium without phenol red/2% or 10% FCS/10% AIM-V. The other wells of the MTP contain the compounds of the invention in various concentrations starting from the third vertical row, from which the test substances are diluted in 3-fold steps up to the tenth vertical row 3^7-fold. The test substances are dissolved in DMSO, whereby the final DMSO concentration in the test mixture eventually is 1%. The test mixtures are incubated at 37° C./5% CO2 for five days and, after the addition of 15 μl of Lu164 substrate (5 mg/ml coelenterazine dissolved in 30 μM glutathione/DMSO, 100 mM NaCl, 1M MES, 100 mM glutathione), evaluated by luminometry. The resulting values are in the region of 1 000 000 RLUs (relative light units) for the virus control and 300 to 400 RLUs for the cell control. The EC50 values of the test substances are determined as the concentration at which the virus replication measured in RLUs is 50% of the untreated infected cells.

HIV-1NL4-3 K103N-Y181C = assay: Light assay with inhibitor-resistant HI reporter virus in MT4 7F2 cells; type: cell-based; settings: Human immunodeficiency virus 1, read-out: EC50 (nM) MT4 7F2 cells HIV-1NL4-3 K103N-Y181C 2% FCS
Description: as §1

HIV-1LAI = assay: H9 assay with wild-type HIV-1 (HIV-1LAI supernatant infection, AlamarBlue); type: cell-based; settings: Human immunodeficiency virus 1, H9 cells, 10% FCS
Description: For the mixture for a 96-well MTP, 3 million PBLs are pelleted, suspended in 1 ml of RPMI 1640 medium/10% FCS and incubated together with a suitable amount of HIV-1LAI (NIH AIDS Research & Reference Reagent Program, Germantown, USA) at 37° C. for 2 hours (pellet infection). Unadsorbed viruses are subsequently washed out with PBS, and the infected cells are pelleted again and suspended in 18 ml of RPMI 1640 medium/10% FCS/interleukin-2 (40 U/ml). 180 μl thereof are pipetted into each well of a white 96-well MTP with 20 μl of test substance in suitable dilution. Alternatively, after preparation of the substance dilutions in the MTP, the HIV is pipetted in together with the cells and is not washed out again (supernatant infection). In order to avoid edge effects, the wells at the edge of the MTP are not used for substance dilutions. The second vertical row of the MTP contains only infected cells (virus control) and the eleventh vertical row only uninfected cells (cell control), in each case in RPMI 1640 medium/10% FCS/interleukin-2 (40 U/ml). The other wells of the MTP contain the compounds of the invention in various concentrations starting from the third vertical row, from which the test substances are diluted in 3-fold steps up to the tenth vertical row 3^7-fold. The test substances are dissolved in DMSO, whereby the final DMSO concentration in the test mixture eventually is 1%. The test mixtures are incubated at 37° C./5% CO2. After 5 and 7 days, 50 μl of cell-free supernatant are removed from each well to determine the amount of p24 present by means of a p24 ELISA (HIV-1 p24^CA Antigen Capture Assay Kit, NCI-Frederick Cancer Research and Development Center, Frederick, USA). From the resulting values of the photometric evaluation (450/620 nm) the EC50 values of the test substances are determined as the concentration at which the amount of p24 is 50% of the untreated infected cells.
Alternatively, H9 cells (ATCC, Wesel, Germany) are employed instead of PBLs for testing the test substances. H9 cells are incubated in RPMI 1640 medium with 2% or 10% FCS as a HIV-1LAI supernatant infection at 37° C./5% CO2, (20 μl of substance dilution and 80 μl of cells/virus per well) in accordance with the pattern described above for 5 days. Subsequently, 10 μl of AlamarBlue (Invitrogen, Karlsruhe, Germany) are added to each well, and the MTPs are incubated at 37° C. for 3 hours before the fluorimetric evaluation takes place (544/590 nm). The resulting values are about 40 000 for the untreated uninfected cells and about 7000 for the untreated infected cells. In the low concentration range, the EC50 values of the test substances are determined as the concentration at which the fluorescence is 50% of the untreated uninfected cells (in each case subtracting the values of the untreated infected cells). In addition, in the high concentration range, the CC50 values of the test substances are determined as the concentration at which the fluorescence is 50% of the untreated uninfected cells (in each case subtracting the values of the untreated infected cells).

Row | Structure (SMILES) | IC50 (reverse transcriptase) [nM] | EC50 (HIV-1NL4-3 wt) [nM] | EC50 (HIV-1NL4-3 K103N-Y181C) [nM] | EC50 (HIV-1LAI) [nM]
1 | N#Cc1cccc(-n2nc(C(=O)N3CNC(=O)C3)cc2-c2cc(F)cc(Cl)c2)c1 [Example 59] | 8 | 0.2 | 10 | 1
2 | N#Cc1cc(-n2nc(C(=O)N3CNC(=O)C3)cc2-c2cc(F)cc(Cl)c2)ccc1F [Example 60, 5-{5-(3-Chloro-5-fluorophenyl)-3-[(4-oxoimidazolidin-1-yl)carbonyl]-1H-pyrazol-1-yl}-2-fluorobenzenecarbonitrile] | 9 | 0.1 | 4 | 0.9
3 | N#Cc1cc(F)cc(-c2cc(C(=O)N3CNC(=O)C3)nn2-c2cccc(Cl)c2)c1 [Example 61, 3-{1-(3-Chlorophenyl)-3-[(4-oxoimidazolidin-1-yl)carbonyl]-1H-pyrazol-5-yl}-5-fluorobenzenecarbonitrile] | 35 | 1 | 80 | 3
4 | N#Cc1cc(F)cc(-c2cc(C(=O)N3CNC(=O)C3)nn2-c2ccc(F)c(Cl)c2)c1 [Example 62, 3-{1-(3-Chloro-4-fluorophenyl)-3-[(4-oxoimidazolidin-1-yl)carbonyl]-1H-pyrazol-5-yl}-5-fluorobenzenecarbonitrile] | 49 | 2 | 63 | 9
5 | N#Cc1cc(F)cc(-c2cc(C(=O)N3CNC(=O)C3)nn2-c2ccc(F)c(C#N)c2)c1 [Example 63, 5-{5-(3-Cyano-5-fluorophenyl)-3-[(4-oxoimidazolidin-1-yl)carbonyl]-1H-pyrazol-1-yl}-2-fluorobenzenecarbonitrile] | 102 | 20 | 237 | 150
6 | N#Cc1cc(F)cc(-c2cc(C(=O)N3CNC(=O)C3)nn2-c2cccc(C#N)c2)c1 [Example 64, 3-{1-(3-Cyanophenyl)-3-[(4-oxoimidazolidin-1-yl)carbonyl]-1H-pyrazol-5-yl}-5-fluorobenzenecarbonitrile] | 25 | 5 | 250 | 100
